Measurements published in patent US10737995B2, “Nuclear receptor modulators and their use for the treatment and prevention of cancer” (The United States of America, as represented by the …, priority 2011, dated 2020).

Tests used:
[1] = system: PSA mRNA expression in LNCaP cells; test: PSA mRNA expression in LNCaP cells, real time RT-PCR; assay type: cell-based, human; conditions: for block of R1881-induced PSA mRNA induction: in the presence of R1881, dose-dependent manner (FIG. 6); for inhibition of PSA mRNA: LNCaP cells (FIG. 12); for inhibition of PSA mRNA expression: 500 nM (FIG. 9); for agonistic effects on PSA and TMPRSS2 mRNA levels: dose dependent study (FIG. 9)
Procedure: FIG. 3 is a graph showing the inhibition of PSA mRNA expression. […] As shown in the graph, a hit was identified that inhibited over 90% PSA mRNA expression in LNCaP cells at 10 μM after 20 hours of treatment.
(§1) LNCaP cells were incubated for 3 days in phenol red-free RPMI 1640 supplemented with 10% charcoal-stripped FBS and 1% antimycotic-antibiotic solution, and then cells were treated for 20 hours. The concentration of R1881 was 0.5 nM, and that of the corresponding compounds was 10, 5 or 1 μM, respectively. Compound 49 inhibited PSA mRNA expression 80% in the presence of R1881 at 5 μM. This activity was similar to bicalutamide.
(§2) For PSA, TMPRSS2, and UBE2C mRNA determination, LNCaP cells or 22Rv1 cells, were cultured and treated with the corresponding compounds for 20 hours in the presence or absence of the synthetic androgen R1881. Total RNA was isolated from cultured cells using the RNeasy RNA Isolation Kit (Qiagen). The RNAs were reverse transcribed immediately after RNA extraction with the High Capacity cDNA Reverse Transcription Kit (Applied Biosystems), using random primers included in the kit, according to the manufacturer's instructions. The cDNA products were stored at −20° C. until the PCR analysis was performed. Real-time PCR primers were designed using Primer Express Applications (Applied Biosystems). The primer sequences for real-time PCR were as follows:
(§3) The mRNA level and total protein in cells were measured after treatment with either control, bicalutamide (0.08 μM to 1.25 μM), or MDV3100 (an antiandrogen) and either about 2.5 μM or about 1.0 μM of Compounds 1-117 respectively. It was known that the expression of PSA mRNA in LNCaP cells is driven by an AR mediated pathway. While PSA is androgen-dependent AR-target gene, UBE2C is androgen-independent AR-target gene. The PSA, TMPRSS2 and UBE2C mRNA levels were normalized by the rRNA level.

[2] = system: R1881-induced AR translocation to the nucleus; test: AR translocation, immunocytochemistry in LNCaP cells; assay type: cell-based, human; conditions: 10 μM for three hours, then 1 nM R1881 for three hours (FIG. 7)
Procedure: FIG. 7 is a graph showing the results of an AR translocation experiment. LNCaP cells were incubated on cover slips in phenol red free RPMI 1640 with 10% charcoal stripped FBS and 1% antimycotic-antibiotic solution for three days. Cells were treated with DMSO, bicalutamide (10 μM) or Compound 11 for three hours, followed by treatment with 1 nM R1881 for three hours. Cells were washed with PBS, fixed with 0.4% paraformaldehyde for 30 min at 37° C., washed with PBS, permeabilized with 0.4% Triton X-100 for 10 min, and then stained with anti-AR antibody (1:100 dilution, Santa Cruz Biotechnology, Santa Cruz, Calif.) for 1 hour at room temperature. After washing with PBS, cells were stained with FITC-labeled goat anti-rabbit IgG (1:200 dilution, BD Biosciences, San Jose, Calif.) for 1 hour at room temperature. After washing with PBS, cells were incubated for 10 min with Hoechst 33342 for nuclear staining, washed, and the dried cover slips were mounted on glass slides with SlowFade Gold anti-fade reagent (Invitrogen). Fluorescence images were obtained using a Leica® DM IRB fluorescence microscope, and nuclear-to-cytoplasmic AR ratios were measured using OpenLab® (Perkin Elmer, Waltham, Mass.) software. […]

[3] = system: TMPRSS2 mRNA expression in LNCaP cells; test: TMPRSS2 mRNA expression in LNCaP cells, real time RT-PCR; assay type: cell-based, human; conditions: for block of R1881-induced TMPRSS2 mRNA induction: in the presence of R1881, dose-dependent manner (FIG. 6); for inhibition of TMPRSS2 mRNA: LNCaP cells (FIG. 12)
Procedure: as §1, §2, §3

[4] = system: PSA mRNA expression in 22Rv1 cells; test: PSA mRNA expression in 22Rv1 cells, real time RT-PCR; assay type: cell-based, human
Procedure: as §2
[…] It was known that the expression of PSA mRNA in LNCaP cells is driven by an AR mediated pathway. While PSA is androgen-dependent AR-target gene, UBE2C is androgen-independent AR-target gene. The PSA, TMPRSS2 and UBE2C mRNA levels were normalized by the rRNA level.

[5] = system: UBE2C mRNA expression in LNCaP cells; test: UBE2C mRNA expression in LNCaP cells, real time RT-PCR; assay type: cell-based, human; conditions: LNCaP cells (FIG. 12)
Procedure: as §2, §3

LNCaP cells = test: LNCaP cell growth, Trypan blue viable cell count; assay type: cell-based; conditions: Homo sapiens, 72 h, 3 days incubation, Trypan blue viable cell number, read-out: IC50 of LNCaP cell growth inhibition
Procedure: LNCaP cells were incubated with Compound 49 for 3 days. Viable cell number was determined by Trypan blue staining and counting in a hemocytometer. The IC50 value of Compound 49 was 3 μM.

[6] = system: UBE2C mRNA expression in 22Rv1 cells; test: UBE2C mRNA expression in 22Rv1 cells, real time RT-PCR; assay type: cell-based, human; conditions: 22Rv1 cells (FIG. 13)
Procedure: as §2, §3

AR in LNCaP cells = test: AR Western blot, LNCaP cells treated 6 hours; assay type: cell-based, human; conditions: 10 μM (data not shown)
Procedure: LNCaP cells were maintained as above. At 50% confluence, cells were washed several times in serum-free RPMI-1640 medium, and re-cultured for 72 hours in RPMI-1640 medium containing 10% charcoal-stripped fetal bovine serum. Cells were treated with R1881 (0.5 nM), with, or without 10 μM, 5 μM or 1 μM of Compounds 1-117, and then cells were cultured for 20 hours. Nuclear and cytoplasmic protein fractionation was performed using NE-PER Nuclear and Cytoplasmic Extraction Reagents Kit (Thermo Scientific Pierce Protein Research Products) according to the manufacturer's instructions. Quantification of AR in nucleus and cytosol was performed by Western blotting with an AR-specific antibody following polyacrylamide gel electrophoresis.
LNCaP cells were also tested after treatment for only 6 hours. Compounds 49, 80 and 86, as well as KU135 (a C-terminal Hsp90 inhibitor) and 17-AAG (a known AR degradation inducer), were tested at 2.5, 5, and 10 μM as well as control (DMSO vehicle). […] LAPC-4 cells (a human prostate cancer cell line with wt AR) were tested against Compounds 80, 86, KU-32 (another C-terminal Hsp90 inhibitor) and 17-AAG.

[7] = system: genome-wide transcriptional response; test: Microarray analysis of genome-wide transcriptional response; assay type: cell-based, human
Procedure: This example illustrates that Compound 86 has an impact on AR-driven gene expression (PSA) and androgen-independent AR-driven gene expression (e.g., UBE2C). A microarray analysis was performed on the genome-wide transcriptional response to Compound 86 compared with the antiandrogens bicalutamide and MDV3100, and solvent DMSO. Each compound was tested at two concentrations: 1 and 5 μM. The data were subjected to bioinformatics analysis using the Partek Genomics Software. […] FIG. 19B depicts a different view in 3-dimensional space again reinforcing the differences between Compound 86 versus DMSO, bicalutamide and MDV3100. This visual assessment is consistent with the data showing that Compound 86 and not DMSO, bicalutamide, or MDV3100, can inhibit the androgen-independent, androgen receptor-dependent transcriptional program of castrate-resistant prostate cancer.

[8] = system: TMPRSS2 mRNA expression in 22Rv1 cells; test: TMPRSS2 mRNA expression in 22Rv1 cells, real time RT-PCR; assay type: cell-based, human; conditions: 22Rv1 cells (FIG. 13)
Procedure: as §2, §3

[9] = LNCaP cells, synthetic androgen R1881 (FIG. 6)

## COc1ccc(C(=O)/C=C/c2ccc([N+](=O)[O-])cc2)c(OC)c1OC [Compound 11]
[1]
  block of R1881-induced PSA mRNA induction: blocked
[2]
  inhibition of R1881-induced AR translocation to the nucleus (nuclear-to-cytoplasmic AR ratio): markedly more active than bicalutamide
[3]
  block of R1881-induced TMPRSS2 mRNA induction: blocked

## COc1ccc(C(=O)/C=C/c2cccc([N+](=O)[O-])c2)c(OC)c1OC [Compound 12]
[1]; 1 μM, PSA and TMPRSS2, in the presence of R1881 (FIG. 6)
  agonistic effect on AR target gene expression: weak agonistic effect
[1]; high concentrations, PSA and TMPRSS2, in the presence of R1881
  activity in blocking R1881-induced AR target gene expression relative to Compound 11: more active
[1]
  block of R1881-induced PSA mRNA induction: blocked
[3]
  block of R1881-induced TMPRSS2 mRNA induction: blocked

## COc1ccccc1C(=O)/C=C/c1ccccc1[N+](=O)[O-] [Compound 49]
[4]; 22Rv1 cells (FIG. 13)
  inhibition of PSA mRNA expression compared to control: 80%
[1]
  inhibition of PSA mRNA: inhibited
[1]; LNCaP cells, 0.5 nM R1881, 5 μM, 20 hours (FIG. 10)
  inhibition of PSA mRNA expression in the presence of R1881: 80%
[1]; LNCaP cells
  inhibition of PSA mRNA expression: 50%
  agonistic effects on PSA and TMPRSS2 mRNA levels: No agonistic effects
[5]
  inhibition of UBE2C mRNA: not effective
LNCaP cells
  IC50: 3 µM
[6]
  inhibition of UBE2C mRNA expression: completely failed to inhibit
[3]
  inhibition of TMPRSS2 mRNA: inhibited

## COc1cc(C(=O)/C=C/c2cccc([N+](=O)[O-])c2)cc(OC)c1OC [Compound 80]
AR in LNCaP cells
  inhibition in AR Western blot: showed inhibition

## COc1ccc(C(=O)/C=C/c2ccc(C#N)cc2)cc1OC [Compound 103]
[1]
  inhibition of PSA mRNA: inhibited
[1]; LNCaP cells
  inhibition of PSA mRNA expression: 50%
  agonistic effects on PSA and TMPRSS2 mRNA levels: No agonistic effects
[5]
  inhibition of UBE2C mRNA: not effective
[3]
  inhibition of TMPRSS2 mRNA: inhibited

## C[C@]1(O)CC[C@H]2[C@@H]3CCC4=CC(=O)CCC4=C3C=C[C@@]21C [Compound R1881, methyltrienolone, reference compound]
[1]; [9]
  PSA mRNA induction compared with the DMSO control: about 500 fold
[3]; [9]
  TMPRSS2 mRNA induction compared with the DMSO control: ~30 fold

## CNC(=O)c1ccc(N2C(=S)N(c3ccc(C#N)c(C(F)(F)F)c3)C(=O)C2(C)C)cc1F [MDV3100, 4-(3-(4-cyano-3-(trifluoromethyl)phenyl)-5,5-dimethyl-4-oxo-2-thioxoimidazolidin-1-yl)-2-fluoro-N-methylbenzamide]
[4]; 22Rv1 cells, 20 hours of exposure, 10 μM (FIG. 14)
  sensitivity of PSA mRNA expression: insensitive
[7]
  inhibition of the androgen-independent, androgen receptor-dependent transcriptional program of castrate-resistant prostate cancer: not

## CC(O)(CS(=O)(=O)c1ccc(F)cc1)C(=O)Nc1ccc(C#N)c(C(F)(F)F)c1 (stereo not drawn) [bicalutamide, reference compound]
[8]
  inhibition of TMPRSS2 mRNA expression: No inhibition
[4]; 22Rv1 cells (FIG. 13)
  inhibition of PSA mRNA expression: No inhibition
[1]; Homo sapiens, LNCaP cells, dose-dependent study (FIG. 4), read-out: IC50 of PSA mRNA inhibition
  IC50: 0.3 µM
[6]
  inhibition of UBE2C mRNA expression: No inhibition
